Results published in patent US12036271B2, “Peptides and combination of peptides as targets or active ingredients for use in immunotherapy against AML and other cancers” (Immatics Biotechnologies GmbH, priority 2016, dated 2024).

Tested on: CD8+ T cells
Test: In vitro immunogenicity: T-cell priming with aAPCs loaded with peptide/MHC complexes and anti-CD28, pMHC multimer readout
Format: cell-based, human
Conditions: HLA-A*02 healthy donor CD8+ T cells, multimer staining
Description: In order to obtain information regarding the immunogenicity of the TUMAPs of the present invention, the inventors performed investigations using an in vitro T-cell priming assay based on repeated stimulations of CD8+ T cells with artificial antigen presenting cells (aAPCs) loaded with peptide/MHC complexes and anti-CD28 antibody.
In order to perform in vitro stimulations by artificial antigen presenting cells loaded with peptide-MHC complex (pMHC) and anti-CD28 antibody, the inventors first isolated CD8+ T cells from fresh HLA-A*02 leukapheresis products via positive selection using CD8 microbeads (Miltenyi Biotec, Bergisch-Gladbach, Germany) of healthy donors obtained from the University clinics Mannheim, Germany, after informed consent.
PBMCs and isolated CD8+ lymphocytes were incubated in T-cell medium (TCM) until use consisting of RPMI-Glutamax (Invitrogen, Karlsruhe, Germany) supplemented with 10% heat inactivated human AB serum (PAN-Biotech, Aidenbach, Germany), 100 U/ml Penicillin/100 μg/ml Streptomycin (Cambrex, Cologne, Germany), 1 mM sodium pyruvate (CC Pro, Oberdorla, Germany), 20 μg/ml Gentamycin (Cambrex). 2.5 ng/ml IL-7 (PromoCell, Heidelberg, Germany) and 10 U/ml IL-2 (Novartis Pharma, Nürnberg, Germany) were also added to the TCM at this step.
Generation of pMHC/anti-CD28 coated beads, T-cell stimulations and readout was performed in a highly defined in vitro system using four different pMHC molecules per stimulation condition and 8 different pMHC molecules per readout condition.
The purified co-stimulatory mouse IgG2a anti human CD28 Ab 9.3 (Jung et al., 1987) was chemically biotinylated using Sulfo-N-hydroxysuccinimidobiotin as recommended by the manufacturer (Perbio, Bonn, Germany). Beads used were 5.6 μm diameter streptavidin coated polystyrene particles (Bangs Laboratories, Illinois, USA).
800.000 beads/200 μl were coated in 96-well plates in the presence of 4×12.5 ng different biotin-pMHC, washed and 600 ng biotin anti-CD28 were added subsequently in a volume of 200 μl. Stimulations were initiated in 96-well plates by co-incubating 1×10^6 CD8+ T cells with 2×10^5 washed coated beads in 200 μl TCM supplemented with 5 ng/ml IL-12 (PromoCell) for 3 days at 37° C. Half of the medium was then exchanged by fresh TCM supplemented with 80 U/ml IL-2 and incubating was continued for 4 days at 37° C. This stimulation cycle was performed for a total of three times. For the pMHC multimer readout using eight different pMHC molecules per condition, a two-dimensional combinatorial coding approach was used as previously described (Andersen et al., 2012) with minor modifications encompassing coupling to 5 different fluorochromes. Finally, multimeric analyses were performed by staining the cells with Live/dead near IR dye (Invitrogen, Karlsruhe, Germany), CD8-FITC antibody clone SK1 (BD, Heidelberg, Germany) and fluorescent pMHC multimers. For analysis, a BD LSRII SORP cytometer equipped with appropriate lasers and filters was used. Peptide specific cells were calculated as percentage of total CD8+ cells. Evaluation of multimeric analysis was done using the FlowJo software (Tree Star, Oregon, USA). In vitro priming of specific multimer+CD8+ lymphocytes was detected by comparing to negative control stimulations.

Substance	wells
198 (KIQEILTQV; listed as Homo sapiens) [compound 198]	++ (20%-49% = ++)
196 (ILVDWLVQV; listed as Homo sapiens) [compound 196]	++ (20%-49% = ++)
194 (LLWGNLPEI; listed as Homo sapiens) [compound 194]	++ (20%-49% = ++)
191 (ALSVLRLAL; listed as Homo sapiens) [compound 191]	++ (20%-49% = ++)
189 (RLFEEVLGV; listed as Homo sapiens) [compound 189]	++ (20%-49% = ++)
197 (VLLNEILEQV; listed as Homo sapiens) [compound 197]	++ (20%-49% = ++)
190 (SLYKGLLSV; listed as Homo sapiens) [compound 190]	++ (20%-49% = ++)
192 (GLAALAVHL; listed as Homo sapiens) [compound 192]	++ (20%-49% = ++)
193 (FLLAEDTKV; listed as Homo sapiens) [compound 193]	++ (20%-49% = ++)
195 (FLFVDPELV; listed as Homo sapiens) [compound 195]	+++ (50%-69% = +++)
